Experimental data as given in US20120152149A1, “USE OF 1,3-DIOLS AS BIOCIDES” (BASF SE, priority 2009, published 2012).
Like-named read-outs stand apart in the source and are kept apart here.

Assays:
Type in all cases: cell-based
A. niger ATCC 16404 = assay: Preservation stress test, example formulation 1 (standard emulsion O/W); conditions: 1% active substance
Method: (§1) Preservation stress tests (PSTs) were carried out in order to determine the preserving activity of the diols. In the preservation stress test, this is simulated through artificial loadings with microorganisms. These can either be inoculated as mixed population or individually in mixtures independent of one another. The inoculated product samples are incubated under defined conditions and, after defined times, samples are taken in order to determine the germ loading. In the case of adequate preservation, the number of microorganisms should, depending on the type, either decrease or remain constant in order to satisfy the requirements specified, e.g. in Ph. Eur. 6.0. To investigate the preserving effect of the diols, application-typical amounts of the diols were incorporated into example formulations. […] [table] These example formulations were used to prepare various mixtures which each comprised 1% active substance or comprised water instead of the active substance as placebo mixtures. These mixtures were in each case inoculated with the test germs such that a germ loading of 10^5-10^6 CFU/g was present in the test mixture. The bacteria were either used individually for the inoculation or as a mixed culture. To determine the starting germ count, immediately after inoculation, an aliquot was taken, diluted in dilution medium (phosphate buffer, 0.07 molar pH 7.4 (+/−0.2), with 1% Tween 80+0.3% soya lecithin), and the surviving germ count was determined in the dilution stages 10^−1 to 10^−3. The inoculated product samples then incubated for a total of 28 d at 20-25° C. After 2 d, 7 d, 14 d and after 28 d, aliquots were taken and diluted in dilution medium (phosphate buffer, 0.07 molar pH 7.4 (+/−0.2), with 1% Tween 80+0.3% soya lecithin). The surviving germ counts were determined in the dilution stages 10^−1 to 10^−4. The reference point taken for determining the reduction in germ count was the respective initial value of the sample. The results were given as logarithmic reductions.

C. albicans ATCC 10231 = assay: as above; conditions: 1% active substance
Method: as §1

E. coli ATCC 10536 = assay: as above; conditions: 1% active substance
Method: as §1

P. aeruginosa ATCC 15442 = assay: as above; conditions: 1% active substance
Method: as §1

S. aureus ATCC 6538 = assay: as above; conditions: 1% active substance
Method: as §1

C. albicans NCPF 3179 = assay: Microstatic activity, MIC in tryptone soy broth; conditions: Candida albicans, NCPF3179, 120 h, 25° C., 5 days
Method: (§2) For this, in each case a 40 percent strength by weight solution of a diol in propylene glycol was prepared at 60° C. This solution was diluted with a double-strength soy solution (double-strength tryptone soy broth) as nutrient medium in the volume ratio 1:1. Further dilution with soy solution produced solutions with the following concentrations: 400 000 ppm (40%), 200 000 ppm (20%), 100 000 ppm (10%), 50 000 ppm (5%), 25 000 ppm (2.5%), 12 500 ppm (1.25%), 6250 ppm (0.625%), 3125 ppm (0.3125%). Pure soy solution was used as negative control. The positive control used was a solution of 5 ml of soy solution which has been treated with 0.1 ml of the respective microorganism. The test solutions consisted of 5 ml of the above-described soy solutions of the diols in the particular concentration which have been mixed with 0.1 ml of the respective microorganism. The samples and controls were incubated in the case of the bacteria at 30° C. for 48 hours, and in the case of fungi over 5 days at 25° C. In each case, the MIC (Minimum Inhibitory Concentration) value was determined. This value indicates the minimum concentration above which the growth of the microorganisms was visibly hindered compared to the corresponding sample without addition of the diol. […] For example, this was evident from the occurrence of clouding or visible growth of the microorganism. […] The MIC value stated is a range between the next higher concentration of a positive test and the same and/or lower concentration of a first negative test.

E. coli NCIMB 8545 = assay: Microstatic activity, MIC in tryptone soy broth; conditions: 48 hours; for MIC: Escherichia coli, NCIMB8545, 30° C.
Method: as §2

[1] = system: P. aeruginosa NCIMB 10421; assay: Microstatic activity, MIC in tryptone soy broth; conditions: Pseudomonas aeruginosa, NCIMB10421, 30° C., 48 hours
Method: as §2

P. vulgaris NCIMB 4175 = assay: Microstatic activity, MIC in tryptone soy broth; conditions: Proteus vulgaris, NCIMB4175, 30° C., 48 hours
Method: as §2

S. aureus NCIMB 9578 = assay: Microstatic activity, MIC in tryptone soy broth; conditions: Staphylococcus aureus, NCIMB9578, 30° C., 48 hours
Method: as §2

A. niger IMI 149007 = assay: Microstatic activity, MIC in tryptone soy broth; conditions: Aspergillus niger, IMI149007, 120 h, 25° C., 5 days
Method: as §2

[2] = system: series of tested microorganisms (bacteria and fungi); assay: Microstatic activity, highest MIC from the series of tested microorganisms; conditions: highest measured MIC from the series of tested microorganisms
Method: The following microorganisms were used;to test the biocidal effect against various bacteria and fungi: In each case, the MIC (Minimum Inhibitory Concentration) value was determined. This value indicates the minimum concentration above which the growth of the microorganisms was visibly hindered compared to the corresponding sample without addition of the diol. The MIC value stated is a range between the next higher concentration of a positive test and the same and/or lower concentration of a first negative test. In the last line of each of the tables below, a “maximum” value is listed. This value indicates the highest measured MIC value in each case from the series of tested microorganisms.

[3] = lower limit of MIC range, read-out: MIC value (ppm of diol), from
[4] = upper limit of MIC range, read-out: MIC value (ppm of diol), to
[5] = lower limit, read-out: Maximum MIC value (ppm of diol), from
[6] = upper limit, read-out: Maximum MIC value (ppm of diol), to

| SMILES | MIC (C. albicans NCPF 3179; [3]) [mg/mL] | MIC (C. albicans NCPF 3179; [4]) [mg/mL] | MIC (E. coli NCIMB 8545; [3]) [mg/mL] | MIC (E. coli NCIMB 8545; [4]) [mg/mL] | MIC [1, 3] [mg/mL] | MIC [1, 4] [mg/mL] | MIC (P. vulgaris NCIMB 4175; [3]) [mg/mL] | MIC (P. vulgaris NCIMB 4175; [4]) [mg/mL] | MIC (S. aureus NCIMB 9578; [3]) [mg/mL] | MIC (S. aureus NCIMB 9578; [4]) [mg/mL] | MIC (A. niger IMI 149007; [3]) [mg/mL] | MIC (A. niger IMI 149007; [4]) [mg/mL] | MIC [2, 5] [mg/mL] | MIC [2, 6] [mg/mL] | also measured |
| --- | --- | --- | --- | --- | --- | --- | --- | --- | --- | --- | --- | --- | --- | --- | --- |
| CCCCC(O)CO (centres unmarked) [1,2-Hexanediol, 1,2-hexanediol] | – | – | – | – | – | – | – | – | – | – | – | – | – | – | Microbicidal activity given as logarithmic reduction in germ count (A. niger ATCC 16404; 48 h): 0 log. Red.; Microbicidal activity given as logarithmic reduction in germ count (A. niger ATCC 16404; 7 d): 0 log. Red.; Microbicidal activity given as logarithmic reduction in germ count (A. niger ATCC 16404; 14 d): 0 log. Red.; Microbicidal activity given as logarithmic reduction in germ count (A. niger ATCC 16404; 28 d): 0 log. Red.; Microbicidal activity given as logarithmic reduction in germ count (C. albicans ATCC 10231; 48 h): 0 log. Red.; Microbicidal activity given as logarithmic reduction in germ count (C. albicans ATCC 10231; 7 d): 0 log. Red.; Microbicidal activity given as logarithmic reduction in germ count (C. albicans ATCC 10231; 14 d): 0 log. Red.; Microbicidal activity given as logarithmic reduction in germ count (C. albicans ATCC 10231; 28 d): 1 log. Red.; Microbicidal activity given as logarithmic reduction in germ count (E. coli ATCC 10536; 48 h): 0 log. Red.; Microbicidal activity given as logarithmic reduction in germ count (E. coli ATCC 10536; 7 d): 1 log. Red.; Microbicidal activity given as logarithmic reduction in germ count (E. coli ATCC 10536; 14 d): 2 log. Red.; Microbicidal activity given as logarithmic reduction in germ count (E. coli ATCC 10536; 28 d): ≧3 log. Red.; Microbicidal activity given as logarithmic reduction in germ count (P. aeruginosa ATCC 15442; 48 h): 0 log. Red.; Microbicidal activity given as logarithmic reduction in germ count (P. aeruginosa ATCC 15442; 7 d): 1 log. Red.; Microbicidal activity given as logarithmic reduction in germ count (P. aeruginosa ATCC 15442; 14 d): 1 log. Red.; Microbicidal activity given as logarithmic reduction in germ count (P. aeruginosa ATCC 15442; 28 d): ≧3 log. Red.; Microbicidal activity given as logarithmic reduction in germ count (S. aureus ATCC 6538; 48 h): 1 log. Red.; Microbicidal activity given as logarithmic reduction in germ count (S. aureus ATCC 6538; 7 d): 1 log. Red.; Microbicidal activity given as logarithmic reduction in germ count (S. aureus ATCC 6538; 14 d): ≧3 log. Red.; Microbicidal activity given as logarithmic reduction in germ count (S. aureus ATCC 6538; 28 d): 5 log. Red. |
| CC(O)CC(C)O (centres unmarked) [2,4-Pentanediol, 2,4-pentanediol, reference compound] | > 50 | ≤ 100 | > 50 | ≤ 100 | > 50 | ≤ 100 | > 50 | ≤ 100 | > 50 | ≤ 100 | – | – | – | – | – |
| CCCCC(CC)(CO)CO [BEPD, 2-butyl-2-ethylpropane-1,3-diol] | > 25 | ≤ 50 | > 6.25 | ≤ 12.5 | > 50 | ≤ 100 | > 3.12 | ≤ 6.25 | > 12.5 | ≤ 25 | > 12.5 | ≤ 25 | > 50 | ≤ 100 | – |
| OCC1(CO)CCCCC1 [DMCH, 1,1-dimethylolcyclohexane] | > 25 | ≤ 50 | > 6.25 | ≤ 12.5 | > 12.5 | ≤ 25 | > 12.5 | ≤ 25 | > 12.5 | ≤ 25 | > 25 | ≤ 50 | > 25 | ≤ 50 | – |
| OCC1(CO)CCCCCCC1 [DMCO, 1,1-dimethylolcyclooctane] | > 6.25 | ≤ 12.5 | > 3.12 | ≤ 6.25 | > 12.5 | ≤ 25 | > 6.25 | ≤ 12.5 | > 6.25 | ≤ 12.5 | > 6.25 | ≤ 12.5 | > 12.5 | ≤ 25 | – |
| OCC1(CO)CC/C=C\CCC1 [DMCOE, 1,1-dimethylolcyclooct-4-ene] | > 12.5 | ≤ 25 | > 3.12 | ≤ 6.25 | > 12.5 | ≤ 25 | > 3.12 | ≤ 6.25 | > 6.25 | ≤ 12.5 | > 12.5 | ≤ 25 | > 12.5 | ≤ 25 | – |
| CCC(C)(CO)CO [EMPD, 2-ethyl-2-methylpropane-1,3-diol] | > 50 | ≤ 100 | > 12.5 | ≤ 25 | > 12.5 | ≤ 25 | > 25 | ≤ 50 | > 25 | ≤ 50 | > 50 | ≤ 100 | > 50 | ≤ 100 | – |
| CC(C)CCC(CO)(CO)C(C)C [IMBPD, 2-isopropyl-2-(3-methylbutyl)propane-1,3-diol] | > 25 | ≤ 50 | > 25 | ≤ 50 | > 100 | – | > 50 | ≤ 100 | > 50 | ≤ 100 | > 12.5 | ≤ 25 | > 100 | – | – |
| CC(CO)(CO)c1ccccc1 [MPPD, 2-methyl-2-phenylpropane-1,3-diol] | > 50 | ≤ 100 | – | ≤ 3.12 | > 25 | ≤ 50 | > 3.12 | ≤ 6.25 | > 12.5 | ≤ 25 | > 50 | ≤ 100 | > 50 | ≤ 100 | MIC value (ppm of diol), from (E. coli NCIMB 8545; 30° C., lower limit of MIC range): >0 ppm |
| CC(O)CO (centres unmarked) [Propylene glycol, propylene glycol, reference compound] | – | – | – | – | > 100 | – | > 100 | – | – | – | – | – | – | – | – |
